From patent publication US8217032B2, “Selective estrogen receptor modulators for the treatment of vasomotor symptoms” (Eli Lilly and Company, priority 2004, dated 2012)

What was measured:
[1] = tested on: ovariectomized Sprague-Dawley rats; experiment: Morphine withdrawal, rat hot flash model; format: in vivo; details: LRL data
Text: Morphine withdrawal, rat hot flash model: Simpkins et al. (1983) first published morphine withdrawal in the rat as a putative model for hot flashes, based on observations highlighting the similarity of symptoms of gonadal steroid withdrawal to those of opioid withdrawal. Although less severe, the signs and symptoms associated with clinical hot flashes, or estrogen deficiency, in the rat parallel those produced by naloxone-precipitated withdrawal in morphine dependent rats, including: 1) an increase in tail skin temperature, 2) a surge in luteinizing hormone and 3) an increase in heart rate. Each of these responses are associated with an increase in sympathetic outflow, which is a current mechanistic hypothesis for hot flashes. […] A key feature of animal models, is that they mimic the treatment efficacy observed with the human disease. The morphine withdrawal hot flash model, either in its originally described form, or with the modifications described herein, is responsive to agents typically used in the treatment of human hot flashes. This includes various forms of estrogen (Simpkins et al., 1983; LRL data), clonidine (LRL data), tibolone (LRL data), and medroxyprogesterone (LRL data). Furthermore, the model is sensitive to agents known to be associated with the induction of hot flashes in postmenopausal women.
A modification of the original procedure of Simpkins et al. (1983) is used which employs ovariectomized Sprague-Dawley rats. […]
On day 21 post-ovariectomy, animals are given […] (80 mg/kg; IM) 2-hours after final administration of the test compound. […] Temperature monitoring is initiated 30 minutes after administration of […] and is recorded every 15 seconds for a 1-hr period. […] A sharp rise in tail skin temperature typically occurs within 5 minutes post-naloxone injection, and two quantitative endpoints are made: 1) tail skin temperature at 15 min post-naloxone, and 2) area under the temperature response curve for the 45-min post-naloxone measurement period. […] Uteri are also removed at this time, and wet weight recorded.

[2] = Phase III clinical studies; cited from earlier work

Compound | responsiveness of the morphine withdrawal hot flash model to agents typically used in the treatment of human hot flashes [1] | incidence of hot flash compared to placebo [2]
Clc1cccc(Cl)c1N=C1NCCN1 [clonidine] | responsive | 
O=C(c1ccc(OCCN2CCCCC2)cc1)c1c(-c2ccc(O)cc2)sc2cc(O)ccc12 [raloxifene] |  | slight increased incidence of hot flash
C#C[C@]1(O)CC[C@H]2[C@@H]3[C@H](C)CC4=C(CCC(=O)C4)[C@H]3CC[C@@]21C [tibolone] | responsive | 
medroxyprogesterone | responsive | 
